Measured values as given in patent US20180042851A1, “SOLID DISPERSIONS” (FMC Corporation, priority 2015, published 2018).
Like-named read-outs stand apart in the source and are kept apart here.

Method: In vitro dissolution studies of the lovastatin:alginate solid dispersions produced above were carried out using the paddle method equipped with a USP II apparatus at 37.5±0.5° C. and a paddle speed of 50 rpm. The appropriate amount of lovastatin solid dispersion (containing 60 mg lovastatin) was added into 900 mL dissolution medium (0.05M pH6.8 phosphate buffer with 0.1% SDS as non-sink condition). Samples (6 mL) were collected at predetermined time intervals and immediately filtered through a 0.15 μm syringe filter, the first 2 mL of filtrate was discarded and the remaining filtrate was collected for analysis at 237 nm using a UV spectrophotometer (UV-2000, UNIC Instrument Corp., Shanghai, China). Meanwhile, an equal volume of fresh dissolution medium was added.

CC[C@H](C)C(=O)O[C@H]1C[C@@H](C)C=C2C=C[C@H](C)[C@H](CC[C@@H]3C[C@@H](O)CC(=O)O3)[C@H]21 [Drug Alone, lovastatin]
Cumulative Release (%) (0 minutes, 60 mg lovastatin in 900 mL pH6.8 phosphate buffer with 0.1% SDS, 37.5° C., 50 rpm): 0%
Cumulative Release (%) (5 minutes, pH6.8 phosphate buffer with 0.1% SDS, non-sink): 13.52%
Cumulative Release (%) (10 minutes, pH6.8 phosphate buffer with 0.1% SDS, non-sink): 18.29%
Cumulative Release (%) (15 minutes, pH6.8 phosphate buffer with 0.1% SDS, non-sink): 22.81%
Cumulative Release (%) (30 minutes, pH6.8 phosphate buffer with 0.1% SDS, non-sink): 29.77%
